This is an account of results in publication PMC9395670 (Frontiers in Chemistry, 2022).

The target of one data set is T1, AChE from E. electricus (Electrophorus electricus, UniProt O42275).
T1 construct: purchased Sigma Aldrich
Description: biochemical.

Data set [1] concerns the target T2, horse serum BuChE (eqBuChE) (Equus caballus, UniProt P81908).
T2 construct: horse serum BuChE (eqBuChE, Sigma-Aldrich); purchased Sigma-Aldrich; host or cells: horse serum
Nature of the data set: biochemical. To be noted: Ellman's method, 25°C, mean ± SEM of three experiments. For orientation: Ellman's reagent forms a yellow product with free thiols.
Description: (§1) This method is based on the reaction of acetylthiocholine with 5,5′´-dithio-bis-(2-nitrobenzoic) acid (DTNB) to yield the colored product.
(§2) AChE from E. electricus, and horse serum BuChE (eqBuChE, Sigma-Aldrich) 5,5-Dithiobis-(2-nitrobenzoic acid) (DTNB), and acetylthiocholine iodide (ATC) were purchased from Sigma Aldrich. […] In this procedure, five different concentrations of each compound were used at 25°C. […] For the in-vitro BuChE assay similar method has been used.

The nature of data set [2]: Cell viability assay (MTT) in PC12 cells. The class given is cell-based. To be noted: rat. Here is the method:
Safety is an important factor for CNS agents. In order to evaluate the cytotoxic effect of selected compounds 5a, 5f, 5h, 5i, and 5l, the in-vitro cell viability assay was investigated on the PC12 cell line using the MTT (3-(4,5-dimethylthiazol-2-yl)-2,5-diphenyltetrazolium bromide) assay. The PC12 cells were incubated with varying concentrations (0.01–100 μM) of the test compounds for 24 h. […] The results are expressed as the percentage of viable cells.
In order to evaluate cell viability of 5a, 5f, 5h, 5i, and 5l, the 3-(4,5-dimethylthiazol-2-yl)-2,5-diphenyl tetrazolium bromide (MTT) assay was performed using PC12 cell line. Cells were seeded in 96-well plates at a density of 5,000 cells/well for 24 h, and then cells were treated with tested compounds and glutamate (5 mM) and incubated at 37°C for 24 h. After that, the medium was removed and 20 μl of the MTT reagent (5 mg/ml) was added and incubated at 37 °C for 4 h. Then, the medium was replaced with 150 μl DMSO to solve formazan crystals. The absorbance was recorded by microplate reader apparatus (Biotek, Winooski, VT, United States) at 570 nm. The assay was performed in three independent experiments and triplicate.

The target of a further data set is T3, Aβ1–42 (Homo sapiens, UniProt P05067).
T3 construct: Aβ1–42 (Sigma A9810); purchased Sigma A9810
T3 sequence (P05067 672-713 limits assumed): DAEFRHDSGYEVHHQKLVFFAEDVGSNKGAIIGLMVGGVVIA
Description: Inhibition of self-induced Aβ1–42 aggregation (thioflavin T assay). The class given is biochemical. The note with it: for inhibition at 10 µM: read-out: Inhibition of Aβ aggregation (%) Self-induced; for Effectiveness relative to donepezil in inhibition of self-induced Aβ aggregation: 10 μM.

Data set [3] addresses T4, Aβ1–42 and human recombinant AChE (Homo sapiens, UniProt P22303).
T4 construct: Aβ1–42 (Sigma A9810); purchased Sigma C1682 (AChE); A9810 (Aβ1–42)
Nature of the data set: Inhibition of AChE-induced Aβ1–42 aggregation (thioflavin T assay). The class given is biochemical. To be noted: read-out: Inhibition of Aβ aggregation (%) AChE-induced.
Description: For this purpose, we used the thioflavin T (ThT) assay.
Aβ1–42 (Sigma A9810) 50 μM was dissolved in ammonium hydroxide (1% v/v) for pre-fibrillation and incubated for 72 h at 37°C. […] Next, 50 μl of thioflavin T (ThT, 200 μM) containing 50 mM glycine-NaOH buffer (pH 8.5) was added. […] The aggregation inhibition of the tested compounds was calculated on AChE or self-induced Aβ-aggregation according to the equation (1−IFi/IFc) × 100, where IFi and IFc are the fluorescence intensities in the presence of inhibitors and in the absence of inhibitors, respectively.

For a further data set, the target named is AChE (Electrophorus electricus, UniProt O42275). Description: Kinetics study of AChE inhibition (Lineweaver-Burk plots). Format: biochemical. To be noted: inhibitor at 0.32, 0.64, 1.27 μM, substrate ATCh. Here is the method:
The inhibition model of acetylcholinesterase can be categorized into irreversible-type inhibition and reversible-type inhibition. […]. The type of inhibition can be concluded with a graphical analysis of the Lineweaver-Burk reciprocal plots ([Baharloo et al., 2015]).
[…]. The experiment was assayed in triplicate.

Setting [4] is: Ellman's method, 25°C, mean ± SEM of three experiments, read-out: IC50 (μM) AChE.
[5] abbreviates: compound at 10 μM, ThT assay, mean ± SEM of three experiments.

In general, IC50 refers to the midpoint of a concentration-inhibition curve. Broadly, the viability is the share of living cells, or the viability signal relative to a control. What is called inhibition is the share of the control response that was lost under treatment.

“Also recorded” adds a separate entry of the source. Read-outs that look alike come from different tables or passages of the source.

T2 sequence (P81908 whole entry): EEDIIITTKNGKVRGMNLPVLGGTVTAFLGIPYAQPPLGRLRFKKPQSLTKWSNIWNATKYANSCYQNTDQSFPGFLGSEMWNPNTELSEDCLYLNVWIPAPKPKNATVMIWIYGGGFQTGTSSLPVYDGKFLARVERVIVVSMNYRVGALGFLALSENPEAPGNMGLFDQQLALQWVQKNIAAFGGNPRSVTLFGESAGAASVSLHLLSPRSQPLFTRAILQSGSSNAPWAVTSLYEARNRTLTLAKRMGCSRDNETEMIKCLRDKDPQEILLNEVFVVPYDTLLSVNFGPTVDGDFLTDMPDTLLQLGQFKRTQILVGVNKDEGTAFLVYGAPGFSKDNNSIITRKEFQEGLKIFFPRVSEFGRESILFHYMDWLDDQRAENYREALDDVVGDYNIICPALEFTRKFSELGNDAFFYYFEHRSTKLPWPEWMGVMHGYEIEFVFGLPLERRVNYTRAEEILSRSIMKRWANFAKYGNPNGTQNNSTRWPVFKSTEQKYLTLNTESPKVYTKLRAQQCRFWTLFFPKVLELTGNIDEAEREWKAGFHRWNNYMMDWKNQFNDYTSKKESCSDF
T4 sequence (P22303 32-614): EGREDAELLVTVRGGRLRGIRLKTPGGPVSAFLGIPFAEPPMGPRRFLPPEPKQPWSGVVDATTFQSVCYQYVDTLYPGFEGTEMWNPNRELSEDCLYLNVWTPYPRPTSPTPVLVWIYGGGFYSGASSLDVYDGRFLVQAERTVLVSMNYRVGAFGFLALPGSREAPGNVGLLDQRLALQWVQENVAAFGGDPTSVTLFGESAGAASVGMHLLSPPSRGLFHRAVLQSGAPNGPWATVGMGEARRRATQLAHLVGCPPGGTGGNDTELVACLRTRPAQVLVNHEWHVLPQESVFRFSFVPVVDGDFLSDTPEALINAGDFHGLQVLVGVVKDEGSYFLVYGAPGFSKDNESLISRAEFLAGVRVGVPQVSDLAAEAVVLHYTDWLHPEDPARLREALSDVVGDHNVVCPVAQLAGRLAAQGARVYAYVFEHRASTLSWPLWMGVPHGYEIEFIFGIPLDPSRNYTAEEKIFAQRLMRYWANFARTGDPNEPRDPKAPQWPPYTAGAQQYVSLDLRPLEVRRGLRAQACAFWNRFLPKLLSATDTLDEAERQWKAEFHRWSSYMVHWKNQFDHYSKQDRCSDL
T1 sequence (O42275 24-633): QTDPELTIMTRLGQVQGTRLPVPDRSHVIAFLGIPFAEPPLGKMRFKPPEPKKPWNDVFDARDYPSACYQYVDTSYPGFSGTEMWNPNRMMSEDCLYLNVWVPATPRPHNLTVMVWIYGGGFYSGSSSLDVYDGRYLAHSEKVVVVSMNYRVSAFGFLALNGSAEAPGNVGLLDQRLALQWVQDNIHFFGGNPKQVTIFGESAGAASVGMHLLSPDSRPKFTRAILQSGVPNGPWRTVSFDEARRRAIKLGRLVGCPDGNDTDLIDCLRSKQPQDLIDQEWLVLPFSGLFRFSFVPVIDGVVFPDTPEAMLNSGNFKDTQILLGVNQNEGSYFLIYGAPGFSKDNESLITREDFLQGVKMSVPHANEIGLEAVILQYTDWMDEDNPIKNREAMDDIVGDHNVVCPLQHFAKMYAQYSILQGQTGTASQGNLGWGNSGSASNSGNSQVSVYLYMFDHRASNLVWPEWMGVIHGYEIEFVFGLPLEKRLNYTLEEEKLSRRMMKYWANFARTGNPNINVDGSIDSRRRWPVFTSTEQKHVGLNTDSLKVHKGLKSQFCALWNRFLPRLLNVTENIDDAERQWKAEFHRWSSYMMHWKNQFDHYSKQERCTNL
Chain of AChE (O42275 24-633): as above
Description for AChE from E. electricus: as §1, §2

For `Nc1c(-c2cc[n+](Cc3ccc(Cl)cc3)cc2)oc2ccccc12` [5k, 4-(3-Aminobenzofuran-2-yl)-1-(4-chlorobenzyl) pyridin-1-ium chloride], the IC50 stood at 16.6 ± 0.52 µM on AChE from E. electricus (setting [4]) and 31.2 ± 2.56 µM in data set [1].
On to `Nc1c(-c2cc[n+](Cc3ccccc3Br)cc2)oc2ccccc12` [5l, 4-(3-Aminobenzofuran-2-yl)-1-(2-bromobenzyl) pyridin-1-ium chloride], for which the IC50 was 1.34 ± 0.01 µM at AChE from E. electricus and 10.5 ± 0.19 µM in data set [1]. The viability at 24 h in data set [2] came to 87.1 ± 2.9%. Besides, the inhibition at 10 µM on Aβ1–42 (setting [5]) worked out at 25.7 ± 2.7%. Moreover, the inhibition at 100 µM in data set [3] was 22.4 ± 2.3%.
Turning to `Cc1ccccc1C[n+]1ccc(-c2oc3ccccc3c2N)cc1` [5b, 4-(3-Aminobenzofuran-2-yl)-1-(2-methylbenzyl) pyridin-1-ium chloride], the figures for the concentration for half-maximal inhibition (IC50) (at AChE from E. electricus (setting [4]); in data set [1]) were 3.29 ± 0.01 µM and 17.4 ± 2.45 µM, respectively.
Consider `COc1cc2c(cc1OC)C(=O)C(CC1CCN(Cc3ccccc3)CC1)C2` (stereo not drawn) [Donepezil, reference compound], for which the inhibition at 10 µM on Aβ1–42 stood at 14.9 ± 2.5%.
`COc1cccc(C[n+]2ccc(-c3oc4ccccc4c3N)cc2)c1` [5e, 4-(3-Aminobenzofuran-2-yl)-1-(3-methoxybenzyl) pyridin-1-ium chloride]: the values for the IC50 (at AChE from E. electricus (setting [4]); in data set [1]) were 81.1 ± 1.61 µM and greater than 100 µM, respectively.
Take `Nc1c(-c2cc[n+](Cc3ccccc3Cl)cc2)oc2ccccc12` [5i, 4-(3-Aminobenzofuran-2-yl)-1-(2-chlorobenzyl) pyridin-1-ium chloride]: the half-inhibitory concentration (IC50) was determined as 0.7 ± 0.01 µM against AChE from E. electricus and 0.99 ± 0.05 µM in data set [1]. Moreover, the viability at 24 h in data set [2] came to 90.2 ± 4.1%. Besides, the inhibition at 10 µM at Aβ1–42 (setting [5]) is 24.8 ± 1.5%. In data set [3], the inhibition at 100 µM turned out to be 26.5 ± 3.8%.
As for `Nc1c(-c2cc[n+](Cc3cccc(Br)c3)cc2)oc2ccccc12` [5m, 4-(3-Aminobenzofuran-2-yl)-1-(3-bromobenzyl) pyridin-1-ium chloride], the 50% inhibitory concentration (IC50) at AChE from E. electricus (setting [4]) is 4.47 ± 0.02 µM; in data set [1], 13.9 ± 1.2 µM.
For `Nc1c(-c2cc[n+](Cc3ccccc3[N+](=O)[O-])cc2)oc2ccccc12` [5o, 4-(3-Aminobenzofuran-2-yl)-1-(2-nitrobenzyl) pyridin-1-ium chloride], the half-maximal inhibitory concentration (IC50) on AChE from E. electricus (setting [4]) worked out at 7.84 ± 0.05 µM; in data set [1] it was 28.63 ± 0.13 µM.
For `Cc1cccc(C[n+]2ccc(-c3oc4ccccc4c3N)cc2)c1` [5c, 4-(3-Aminobenzofuran-2-yl)-1-(3-methylbenzyl) pyridin-1-ium chloride], the half-inhibitory concentration (IC50) at AChE from E. electricus (setting [4]) turned out to be 3.32 ± 0.04 µM; in data set [1], 12.9 ± 3.56 µM.
For `Nc1c(-c2cc[n+](Cc3ccc(Br)cc3)cc2)oc2ccccc12` [5n, 4-(3-Aminobenzofuran-2-yl)-1-(4-bromobenzyl) pyridin-1-ium chloride], the IC50 on AChE from E. electricus (setting [4]) was determined as 15.8 ± 0.91 µM; in data set [1], 22.6 ± 3.33 µM.
On to `Nc1c(-c2cc[n+](Cc3cccc(F)c3)cc2)oc2ccccc12` [5g, 4-(3-Aminobenzofuran-2-yl)-1-(3-fluorobenzyl) pyridin-1-ium chloride], for which the IC50 is 1.68 ± 0.02 µM at AChE from E. electricus (setting [4]) and 2.89 ± 0.42 µM in data set [1].
On the same counts, the results for `Nc1c(-c2cc[n+](Cc3cccc(Cl)c3)cc2)oc2ccccc12` [5j, 4-(3-Aminobenzofuran-2-yl)-1-(3-chlorobenzyl) pyridin-1-ium chloride] are 2.99 ± 0.03 µM and 18.8 ± 1.11 µM.
Regarding `Cc1ccc(C[n+]2ccc(-c3oc4ccccc4c3N)cc2)cc1` [5d, 4-(3-Aminobenzofuran-2-yl)-1-(4-methylbenzyl) pyridin-1-ium chloride], the 50% inhibitory concentration (IC50) at AChE from E. electricus (setting [4]) was found to be 29.3 ± 0.82 µM; in data set [1], 25.3 ± 1.91 µM.
`Nc1c(-c2cc[n+](Cc3ccccc3)cc2)oc2ccccc12` [5a, 4-(3-Aminobenzofuran-2-yl)-1-benzylpyridin-1-ium chloride]: the figures for the IC50 (against AChE from E. electricus; in data set [1]) were 0.81 ± 0.02 µM and 0.82 ± 0.07 µM, respectively. Also, in data set [2], the viability at 24 h is 85.9 ± 1.5%. Further, on Aβ1–42 (setting [5]), the inhibition at 10 µM came to 17.6 ± 3.8%. In addition, the inhibition at 100 µM in data set [3] is 22.4 ± 1.6%.
Turning to `Nc1c(-c2cc[n+](Cc3ccc([N+](=O)[O-])cc3)cc2)oc2ccccc12` [5p, 4-(3-Aminobenzofuran-2-yl)-1-(4-nitrobenzyl) pyridin-1-ium chloride], the results for the half-inhibitory concentration (IC50) (on AChE from E. electricus (setting [4]); in data set [1]) were 20.6 ± 0.8 µM and 28.3 ± 0.48 µM, respectively.
Regarding `Nc1c(-c2cc[n+](Cc3ccccc3F)cc2)oc2ccccc12.[Cl-]` [5f, 4-(3-Aminobenzofuran-2-yl)-1-(2-fluorobenzyl) pyridin-1-ium chloride], the results for the IC50 (at AChE from E. electricus; in data set [1]) were 0.64 ± 0.04 µM and 0.55 ± 0.07 µM, respectively. The compound further gave a viability at 24 h in data set [2] of 86.4 ± 2.6%. Moreover, the “Type of inhibition on AChE” value on AChE is reported as “mixed-type inhibition; also recorded: mixed-type inhibitory pattern”. For the same compound, the “Effectiveness relative to donepezil in inhibition of self-induced Aβ aggregation” value on Aβ1–42 (ThT assay) is listed as “about 2 fold”. For the same compound, the inhibition at 10 µM at Aβ1–42 (setting [5]) stood at 29.8 ± 1.8%. In data set [3], the inhibition at 100 µM came out at 30.1 ± 1.9%.
`Nc1c(-c2cc[n+](Cc3ccc(F)cc3)cc2)oc2ccccc12.[Cl-]` [5h, 4-(3-Aminobenzofuran-2-yl)-1-(4-fluorobenzyl) pyridin-1-ium chloride]: the results for the IC50 (at AChE from E. electricus; in data set [1]) were 0.88 ± 0.04 µM and 5.05 ± 0.73 µM, respectively. This compound gave a viability at 24 h in data set [2] of 88.2 ± 2.4%. Besides, on Aβ1–42 (ThT assay), the “Effectiveness relative to donepezil in inhibition of self-induced Aβ aggregation” value is reported as “about 2 fold”. Also, the inhibition at 10 µM at Aβ1–42 (setting [5]) turned out to be 38.8 ± 2.8%. For the same compound, in data set [3], the inhibition at 100 µM stood at 35.6 ± 1.5%.
